From patent US9512083B2, “Histone deacetylase 6 selective inhibitors for the treatment of bone disease” (The General Hospital Corporation, priority 2012, dated 2016)
Entries after “also recorded” stand apart in the source; their conditions may differ.

Legend:
Sirtuin 1 = target: T1, Sirtuin 1 (Homo sapiens, UniProt Q96EB6); assay: HDAC enzyme assay, Sirtuin 1; format: biochemical
T1 sequence (Q96EB6 1-747): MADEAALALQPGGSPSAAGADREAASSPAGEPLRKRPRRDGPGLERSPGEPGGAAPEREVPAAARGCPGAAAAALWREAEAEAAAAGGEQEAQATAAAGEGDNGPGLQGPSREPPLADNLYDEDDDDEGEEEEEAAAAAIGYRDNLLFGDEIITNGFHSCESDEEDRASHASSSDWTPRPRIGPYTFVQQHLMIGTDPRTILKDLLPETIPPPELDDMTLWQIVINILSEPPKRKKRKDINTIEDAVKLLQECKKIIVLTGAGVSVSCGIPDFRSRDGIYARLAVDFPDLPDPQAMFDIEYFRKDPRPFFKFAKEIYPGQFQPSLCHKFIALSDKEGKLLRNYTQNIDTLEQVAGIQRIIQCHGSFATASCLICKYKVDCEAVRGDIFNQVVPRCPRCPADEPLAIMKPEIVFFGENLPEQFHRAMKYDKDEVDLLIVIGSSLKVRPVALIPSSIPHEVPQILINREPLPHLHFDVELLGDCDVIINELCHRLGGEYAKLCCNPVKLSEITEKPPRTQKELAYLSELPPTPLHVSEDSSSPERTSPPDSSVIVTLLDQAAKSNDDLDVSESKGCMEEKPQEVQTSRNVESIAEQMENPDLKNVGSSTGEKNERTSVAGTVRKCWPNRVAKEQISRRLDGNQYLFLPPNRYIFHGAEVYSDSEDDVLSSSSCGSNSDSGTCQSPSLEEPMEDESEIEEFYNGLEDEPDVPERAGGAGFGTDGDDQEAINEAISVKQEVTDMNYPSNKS

Sirtuin 2 = target: T2, Sirtuin 2 (Homo sapiens, UniProt Q8IXJ6); assay: HDAC enzyme assay, Sirtuin 2; format: biochemical
T2 sequence (Q8IXJ6 1-389): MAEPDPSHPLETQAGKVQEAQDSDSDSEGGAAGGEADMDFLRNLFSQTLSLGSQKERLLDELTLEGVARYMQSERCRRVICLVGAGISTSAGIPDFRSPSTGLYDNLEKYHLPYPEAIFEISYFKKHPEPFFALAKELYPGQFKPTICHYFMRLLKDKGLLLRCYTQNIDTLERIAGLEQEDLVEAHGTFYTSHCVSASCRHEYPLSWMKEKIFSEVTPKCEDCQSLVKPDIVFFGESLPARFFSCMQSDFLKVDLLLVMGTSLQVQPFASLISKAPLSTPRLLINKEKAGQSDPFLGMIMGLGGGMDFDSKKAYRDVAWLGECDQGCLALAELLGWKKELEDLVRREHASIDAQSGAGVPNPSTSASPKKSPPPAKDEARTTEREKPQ

acetylated α-tubulin = assay: Acetylation of α-tubulin in MM.1S cells; format: cell-based; settings: increasing doses, 18 hours
[1] = test system: acetylation of lysine on Histone H3 and Histone H4; assay: Acetylation of Histone H3 and H4 in MM.1S cells; format: cell-based; settings: compared to SAHA
ac-α-tubulin [2] = assay: Western blot of ac-α-tubulin in CD138+ MM patient cells; format: cell-based, human; settings: 2 μM, 4 hours
ac-α-tubulin [3] = assay: Immunohistochemistry of ac-α-tubulin in CD138+ MM patient cells; format: cell-based, human; settings: treated vs control
acetyl-Histone H3 = assay: Immunohistochemistry of acetyl-Histone H3 in CD138+ MM patient cells; format: cell-based, human; settings: treated vs control
[4] = test system: osteoblasts (OBLs) differentiated from BMSCs derived from MM patients; assay: AlamarBlue viability assay of osteoblasts; format: cell-based, human; settings: Compound A 1 μM and/or bortezomib 2.5 nM, 10-14 and 21 days
Protocol: Alamarblue was added to the wells to a final concentration of 10% alamar blue and the plates were incubated at […] and 5% CO2 for 1 to 4 hours. The plates were read at absorbance (OD) of 530 nm and 600 nm. The delta OD was recorded and the date were plotted as percentage of control.
The control (ctr) represents the OBL without any treatment. Cell viability was assessed by Alamarblue assay (a redox indicator that yields a colorimetric change and a fluorescent signal in a response to a metabolic activity) (Invitrogen, Carlsbad, Calif.). […] (FIG. 1A alarm blue after 14 days of differentiation in BMSC derived from patient 1, FIG. 1C alarm blue after 21 days of differentiation in BMSC derived from the same patient, FIG. 2A alarm blue after 14 days of differentiation in BMSC derived from patient 2, FIG. 2C alarm blue after 21 days of differentiation in BMSC derived from patient 2, FIG. 3A alarm blue after 10 days of differentiation in BMSC derived from patient 3).

[5] = test system: osteoblasts (OBLs) differentiated from BMSCs derived from MM patients; assay: Alkaline phosphatase (ALP) activity assay of osteoblasts; format: cell-based, human; settings: Compound A 1 μM and/or bortezomib 2.5 nM, 10-14 and 21 days
Protocol: Following the AlamarBlue cell viability assay, the wells were then washed twice with PBS fixed for 5 minutes and washed again with distilled water and Alkaline Phosphatase Yellow (pNPP) Liquid Substrate System for ELISA (sigma-aldrich) was added to the wells. The plates were read at OD of 405 nm after 5 minutes of incubation.
(FIG. 1B ALP after 14 days of differentiation in BMSC derived from patient 1, FIG. 1D ALP after 21 days of differentiation in BMSC derived from the same patient, FIG. 2B ALP after 14 days of differentiation in BMSC derived from patient 2, FIG. 2D ALP after 21 days of differentiation in BMSC derived from patient 2, FIG. 3B ALP after 10 days of differentiation in BMSC derived from patient 3).

[6] = test system: osteoblasts (OBLs) differentiated from BMSCs derived from MM patients; assay: Alizarin red staining of calcium deposits in osteoblasts; format: cell-based, human; settings: OBLs differentiated in presence of Compound A and/or bortezomib, 23 days
Text: To evaluate calcium deposition, osteoblasts were washed with PBS and fixed after 23 days of treatment and assayed by alizarin red staining (Alizarin red solution, Millipore) that specifically stains mineralization area. The mineralization areas were visualized using Nikon Labophot-2 microscope with 10×/0.25 lens equipped with SPOT-insight QE camera.
The results shown in FIG. 4A “CTR alpha-mem” represent the BMSCs that have not been differentiated in OBL. The results shown in FIG. 4B “CRT OBL medium” represent the OBL without any treatment.

[7] = test system: osteoclasts (OCLs) differentiated from PBMCs from MM patients; assay: Osteoclastogenesis, TRAP staining; format: cell-based, human
[8] = test system: osteoclasts differentiated from MM patient bone marrow; assay: PIT formation assay (bone resorption); format: cell-based, human; settings: Compound A 1 μM and/or bortezomib 2.5 nM, 7 days
Protocol: OC activity was assayed by bone resorption enumerating resorption pits. Briefly, mononuclear cells (1.8×10^6 cell/well) from MM patient bone marrow were cultured in a 24-well plate coated with a synthetic carbonate apatite (CaP) (Cosmo Bio Co., Ltd, Tokio, Japan) and stimulated with RANKL (25 ng/ml) and M-CSF (25 ng/ml). […] On day 7 the conditioned medium was removed from each well and the wells were treated with 5% sodium hypochlorite for five minutes. After washing and drying, resorption pits were photographed by light microscopy and quantified by Image J software. Each pit area assay was performed at least 3 times with BM from different donors.

[9] = test system: pERK, pAkt, c-fos in OCLs; assay: Immunoblot of signaling pathway in OCLs; format: cell-based, human; settings: OCLs differentiated 10 days, treated with Compound A and or bortezomib 24 hours
Text: Samples were then subjected to sodium dodecyl sulfate-polyacrylamide gel electrophoresis, transferred to PVDF membrane, and immunoblotted with antibodies against pAkt, Akt, and c-fos (Cell Signaling Technology, Beverly, Mass.) or phosphorylated extracellular signal-regulated kinase (pERK). Antigen-antibody complexes were detected by enhanced chemiluminescence (Amersham, Arlington Heights, Ill.). The membrane was stripped and reprobed with antitubulin antibody to ensure equal protein loading. Films were scanned and densitometric analysis performed.

Work on `O=C(CCCCCCNC(=O)c1cnc(N(c2ccccc2)c2ccccc2)nc1)NO` [Compound A, 2-(diphenylamino)-N-(7-(hydroxyamino)-7-oxoheptyl)pyrimidine-5-carboxamide] yielded an IC50 (Sirtuin 1; Sirtuin 1) of over 10 µM, an IC50 (Sirtuin 1; sirtuin 1, text (minimal activity)) of over 1 µM and an IC50 (Sirtuin 2; Sirtuin 2) of over 10 µM. For the same compound, the IC50 (Sirtuin 2; sirtuin 2, text (minimal activity)) was over 1 µM, the “acetylated α-tubulin” value (acetylated α-tubulin) was “dose dependent significant increase in the acetylated α-tubulin was observed even in the presence of low doses (0.04 μM)” and the “acetylation of lysine on Histone H3 and Histone H4” value [1] was “less potent acetylation of lysine on Histone H3 and Histone H4 compared to SAHA”. For the same compound, the “ac-α-tubulin, Western blot” value (ac-α-tubulin [2]) was “significant increase of ac-α-tubulin in treated compared to control cells”, the “ac-α-tubulin, immunohistochemistry (IHC)” value (ac-α-tubulin [3]) was “significant increase of ac-α-tubulin was observed in treated compared to control cells” and the “acetyl-Histone H3, immunohistochemistry (IHC)” value (acetyl-Histone H3) was “without any significant increase in acetyl-Histone H3”. For the same compound, the “viability of OBLs (AlamarBlue)” value [4] was “does not induce cytotoxicity on OBL cells; also recorded: does not affect the viability of osteoblasts (OBLs)”, the “OBLs function (alkaline phosphatase (ALP) activity)” value [5] was “increases OBLs function; also recorded: increases the alkaline phosphate activity” and the “calcium deposits (Alizarin red staining)” value [6] was “increases calcium deposits in OBL cells”. The “number of OCLs (multinucleated TRAP-positive cells) per well” value ([7]; compared with bortezomib or untreated control wells, 7 and 14 days) was “significantly decreases the number of OCLs; also recorded: inhibits osteoclastogenesis”, the “number of OCLs (multinucleated TRAP-positive cells) per well, dose dependence” value ([7]; days 7 and 14 of osteoclast differentiation) was “decreases the number of OCLs (multinucleated TRAP-positive cells) per well in a dose dependent manner; also recorded: inhibits osteoclastogenesis in a dose-dependent manner” and the “PIT formation (resorption pits)” value [8] was “significantly arrested PIT formation”. The “pERK, pAkt and c-fos expression (immunoblot)” value [9] was “downregulation of pERK, pEKT and cFOS expression”.
